Reference: ChEMBL document CHEMBL1165950, “Design and synthesis of new potent anticancer pyrazoles with high FLT3 kinase inhibitory selectivity” (Bioorg Med Chem, 2010)

Assays:
SK-MEL-28 [1] = assay: Cytotoxicity against human SK-MEL-28 cells assessed as cell growth at 100 nM after 48 hrs by sulforhodamine B assay; type: functional; settings: SK-MEL-28, 48 h, read-out: Activity
SK-MEL-28 [2] = assay: Cytotoxicity against human SK-MEL-28 cells assessed as cell growth at 0.001 uM after 48 hrs by sulforhodamine B assay; type: functional; settings: SK-MEL-28, 48 h, read-out: Activity
HCC 2998 = assay: Cytotoxicity against human HCC2998 cells assessed as cell growth at 10 uM after 48 hrs by sulforhodamine B assay; type: functional; settings: HCC 2998, 48 h, read-out: Activity
[3] = target: Receptor-type tyrosine-protein kinase FLT3 (Homo sapiens) (UniProt P36888); assay: Inhibition of FLT3 at 10 uM by HotSpot assay
[4] = target: Receptor-type tyrosine-protein kinase FLT3 (Homo sapiens, UniProt P36888); assay: Inhibition of FLT3 by HotSpot assay
Chain of Receptor-type tyrosine-protein kinase FLT3 (P36888 whole entry): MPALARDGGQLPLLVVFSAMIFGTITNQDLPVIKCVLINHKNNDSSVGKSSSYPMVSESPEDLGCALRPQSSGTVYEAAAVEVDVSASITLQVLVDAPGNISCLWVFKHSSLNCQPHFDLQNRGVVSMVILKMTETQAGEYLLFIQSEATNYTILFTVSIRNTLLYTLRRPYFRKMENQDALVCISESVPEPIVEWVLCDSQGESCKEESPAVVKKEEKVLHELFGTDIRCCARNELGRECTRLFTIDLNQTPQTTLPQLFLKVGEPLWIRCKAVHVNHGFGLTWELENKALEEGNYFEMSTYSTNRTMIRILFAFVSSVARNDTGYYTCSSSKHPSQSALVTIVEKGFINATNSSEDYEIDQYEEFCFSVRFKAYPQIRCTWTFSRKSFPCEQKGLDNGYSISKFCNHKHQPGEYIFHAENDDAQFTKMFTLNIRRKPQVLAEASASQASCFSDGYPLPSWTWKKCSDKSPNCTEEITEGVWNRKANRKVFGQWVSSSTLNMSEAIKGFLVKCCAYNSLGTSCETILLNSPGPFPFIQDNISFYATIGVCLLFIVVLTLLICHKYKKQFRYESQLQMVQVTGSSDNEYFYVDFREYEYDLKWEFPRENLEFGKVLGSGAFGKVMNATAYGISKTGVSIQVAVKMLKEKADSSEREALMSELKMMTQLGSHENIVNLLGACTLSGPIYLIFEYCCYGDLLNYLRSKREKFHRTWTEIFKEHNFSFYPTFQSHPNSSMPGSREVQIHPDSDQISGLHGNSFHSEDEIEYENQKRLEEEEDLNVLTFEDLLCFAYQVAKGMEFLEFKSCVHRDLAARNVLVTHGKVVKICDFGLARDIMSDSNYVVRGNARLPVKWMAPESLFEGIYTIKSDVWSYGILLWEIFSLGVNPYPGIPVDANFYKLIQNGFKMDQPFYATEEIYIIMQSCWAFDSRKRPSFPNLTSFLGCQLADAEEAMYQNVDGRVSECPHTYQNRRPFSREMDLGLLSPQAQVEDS

Chain of Receptor-type tyrosine-protein kinase FLT3 (Homo sapiens) (P36888 whole entry): as above

Row | SMILES | growth at 0.1 µM (SK-MEL-28 [1]) [%] | growth at 0.001 µM (SK-MEL-28 [2]) [%] | growth at 10 µM (HCC 2998) [%] | inhibition [3] [%] | IC50 [4] [nM]
1 | COc1cc(C)cc(-c2c(-c3ccnc(-c4ccc(C(C)=O)cc4)c3)cnn2CC#N)c1 | 95 | 90 | 5 | – | –
2 | Cc1cc(O)cc(-c2nn(CC#N)cc2-c2ccnc(-c3ccc(Oc4ccccc4)cc3)c2)c1 | 95 | 91 | -95 | – | –
3 | COc1cc(C)cc(-c2nn(CC#N)cc2-c2ccnc(-c3ccc(N(C)C)cc3)c2)c1 | 44 | 100 | -76 | – | –
4 | Cc1cc(O)cc(-c2nn(CC#N)cc2-c2ccnc(-c3ccc(N(C)C)cc3)c2)c1 | 96 | 102 | -98 | – | –
5 | COc1cc(C)cc(-c2nn(CC#N)cc2-c2ccc(-c3cccc(C(C)=O)c3)nc2)c1 | 74 | 92 | -62 | – | –
6 | COc1cc(C)cc(-c2c(-c3ccnc(-c4ccc(N(C)C)cc4)c3)cnn2CC#N)c1 | – | – | – | 82.3 | 1740
